The text below walks through data of PMC7795729 (International Journal of Molecular Sciences, 2020).

Data set [1] relates to MCF-7 (breast cancer) cells. As to conditions: for IC50: read-out: IC50, MCF-7 cell viability, MTT, dose-response 1, 2.5, 5, 10, 20 and 25 µM, 24 h, triplicates, n = 3. The method, then:
(§1) MCF-7 cells and SH-SY5Y cells were maintained in a culture flask (25 cm^2) with full growth medium DMEM supplemented with 10% FBS and penicillin and streptomycin (final concentration of 100 U/mL and 0.1 mg/mL, respectively) were kept in an incubator at 37 °C and 5% CO2. In the culture flask, the medium was changed at least twice a week, while trypsinization was done at least once a week. Trypsinization was made when there was more than 80% confluence of the monolayer and cell passages used were lower than 35.
(§2) For cytotoxicity evaluation, MCF-7 cells were seeded in 48-well plates at a density of 25 × 10^4 cells per well in a final volume of 250 µL of culture medium. Cells were given 24 h to attach before they were incubated with the compounds in the study. […] H2O and DMSO were used in control, with the volume added being the one used for each concentration.
The MTT assay can be used to assess the cell’s metabolic activity. MTT, a water-soluble compound, is reduced by the complex II of the mitochondrial respiratory chain to a water-insoluble blue formazan product. Only viable cells can metabolize MTT, so the metabolic activity is proportional to the quantity of formazans produced). After a 24 h incubation with the compounds in the study at 37 °C with 5% CO2, the cells were retrieved from the incubator and the medium was discarded. A previously warmed medium with MTT (0.5 mg/mL) was added (200 μL per well) and cells were maintained for 3 h at 37 °C and 5% CO2. Then the medium was aspirated again and DMSO (200 μL) was added to cause cellular lysis and solubilize the formazan crystals. The complete dissolution of the crystals was obtained by putting the plates on a shaking platform for 15 min, protected from light. The absorbance was read at 570 nm in a microplate reader (BioTeK Model Synergy HT, Winooski, VT, USA). Results were expressed as percentage of control cells.

A further data set concerns SH-SY5Y cells. Put plainly: Cell count analysis (Lionheart FX), SH-SY5Y cells. The data set is classed as cell-based, human. As to conditions: SH-SY5Y, 1, 2.5, 5 and 10 µM, 24 h incubation, n = 1.
Data set [2] concerns the target T1, acetylcholinesterase (AChE from the electric eel) (Electrophorus electricus, UniProt O42275).
T1 construct: purchased Sigma-Aldrich
Put plainly: AChE in vitro inhibition assay (Ellman's method). The data set is classed as biochemical.
Procedure: Apart from its main function, this enzyme can efficiently hydrolyze a sulfur analogue of acetylcholine–acetylthiocholine. The products of this reaction are acetate and thiocholine, with the latter reacting with the highly reactive DNTB ion, generating a 5-thio-2-nitrobenzoate anion that has a yellow color and it can be detected by measuring the increase of absorbance at 412 nm. 3 mL of assay medium (phosphate buffer pH 7.4 + 150 µL DNTB 0.01 M + 30 µL AChE 2.0 units/mL) was put into cuvettes. The positive control was incubated at 37 °C for 15 min and then was added 150 µL of substrate (acetylthiocholine 0.01 M). […] After the addition of substrate to the assay medium, it was measured the increase in absorbance at 412 nm for 30 s intervals for 5 min (300 s) at 37 °C.
The absorbance was measured in the JENWAY 6300 Spectrophotometer. All conditions were made in triplicates. The value of the initial absorbance was subtracted to the value of the absorbance at 300 s and that was considered as the biological activity.

Data set [3] deals with MCF-7 cells. Kind of data set: Analysis of drug interactions (Chou-Talalay, CompuSyn). The data set is classed as cell-based, human. The note with it: n = 3. The method, then:
To quantify the interaction of Tacrine and MAP in the conjugate, the dose-effect curves were estimated by the unified theory, introduced by Chou and Talalay using CompuSyn software (ComboSyn, Inc., New York, NY, USA). The dose was plotted on the y-axis as a function of effect level (Fa) on the x-axis to assess the drugs’ behavior. Experiments were conducted in triplicate (n = 3) with three replications.

For data set [4], the system named is SH-SY5Y (neuroblastoma) cells. Put plainly: MTT reduction assay, SH-SY5Y cells. Type of data set: cell-based, human. The method, then:
as §1
Cells were given 24 h to attach before they were incubated with the compounds in the study. The cells were treated with different concentrations (1, 2.5, 5, and 10 µM) of Tacrine, MAP, and Tacrine-MAP for 24 h with a final volume per well of 200 μL of complete medium. H2O and DMSO were used in control, with the volume added being the one used for each concentration. After the period of incubation, the MTT reduction was performed in both cell lines.
The MTT assay can be used to assess the cell’s metabolic activity. […] Only viable cells can metabolize MTT, so the metabolic activity is proportional to the quantity of formazans produced). […] The absorbance was read at 570 nm in a microplate reader (BioTeK Model Synergy HT, Winooski, VT, USA). Results were expressed as percentage of control cells.

Data set [5] has as its system MCF-7 cells. Put plainly: Cell morphology visualization (phase contrast, Lionheart FX), MCF-7 cells. Type of data set: cell-based, human. The note with it: 24 h incubation; Tacrine all concentrations tested; MAP 5, 10, 20 and 25 μM; conjugate higher concentrations. As for the experimental part: as §2
(§3) After the treatments, cell morphology and growth were assessed by the contrast phase microscope Lionheart FX (Biotech, VT, USA) with the use of Gen5 software (Biotech, USA). The cell count of MCF-7 cells was assessed by Lionheart FX (Biotech, USA) using Gen5 software (Biotech, USA).

For data set [6], the system named is MCF-7 cells. Kind of data set: Cell count analysis (Lionheart FX), MCF-7 cells. As to conditions: 24 h incubation, n = 1. Type of data set: cell-based, human. The method, then:
as §2, §3

The conditions of data set [7]: cellular uptake kinetics; cited from earlier work. From the text:
In view of the above, we decided to explore how the coupling of Tacrine with the cell-penetrating peptide (CPP) MAP might enhance its anti-cancer effect. CPPs are considered versatile carriers due to their unique ability to transport a wide range of molecules such as proteins, nucleic acids, contrast agents, drugs, and promote their intracellular delivery with limited toxicity. […] MAP (named after “model amphipathic peptide”) is an artificial ...

The test system of data set [8] is breast tumor cells (MCF-7). The note with it: cited from earlier work. From the text: Drug combination is a strategy increasingly used in oncology because it allows taking advantage of the maximum therapeutic effect of two or more drugs, by combining different mechanisms of action, while reducing required doses and, consequently, side effects. Drug repurposing is another strategy that allows overcoming the disadvantages of the traditional development of novel anticancer drugs, by searching for new therapeutic uses for drugs already approved for other indications. This allows the reduction of costs related to the development of new drugs while promoting a faster route towards th ...

The mark [9] stands for this setting: summary statement of the abstract.

T1 sequence (O42275 24-633): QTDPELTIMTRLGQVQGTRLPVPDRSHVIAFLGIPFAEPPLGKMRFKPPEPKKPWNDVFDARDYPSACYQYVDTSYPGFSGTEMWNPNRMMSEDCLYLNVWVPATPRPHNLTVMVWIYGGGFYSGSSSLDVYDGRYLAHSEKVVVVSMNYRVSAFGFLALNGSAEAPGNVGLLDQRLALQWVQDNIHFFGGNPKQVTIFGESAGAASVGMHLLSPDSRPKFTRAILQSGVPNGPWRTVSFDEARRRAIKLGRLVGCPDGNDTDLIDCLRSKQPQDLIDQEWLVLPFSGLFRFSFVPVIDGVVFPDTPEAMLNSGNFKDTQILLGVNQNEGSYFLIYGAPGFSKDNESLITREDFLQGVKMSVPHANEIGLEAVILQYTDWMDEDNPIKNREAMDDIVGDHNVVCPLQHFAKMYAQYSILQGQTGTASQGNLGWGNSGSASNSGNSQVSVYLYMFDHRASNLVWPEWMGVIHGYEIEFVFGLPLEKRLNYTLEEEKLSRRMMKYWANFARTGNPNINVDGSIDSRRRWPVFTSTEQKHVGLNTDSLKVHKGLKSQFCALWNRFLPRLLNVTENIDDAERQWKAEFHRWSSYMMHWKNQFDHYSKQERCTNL

For the compound `CC(C)C[C@H](NC(=O)[C@H](C)NC(=O)[C@H](CCCCN)NC(=O)[C@H](CC(C)C)NC(=O)[C@H](C)NC(=O)[C@H](CC(C)C)NC(=O)[C@H](CCCCN)NC(=O)[C@H](CC(C)C)NC(=O)[C@H](C)NC(=O)[C@H](CC(C)C)NC(=O)[C@H](CCCCN)NC(=O)[C@@H](N)Cc1cn(CC(=O)Nc2c3c(nc4ccccc24)CCCC3)nn1)C(=O)N[C@@H](CCCCN)C(=O)N[C@@H](C)C(=O)N[C@@H](C)C(=O)N[C@@H](CC(C)C)C(=O)N[C@@H](CCCCN)C(=O)N[C@@H](CC(C)C)C(=O)N[C@@H](C)C(N)=O` [MAP-Tacrine conjugate], the half-inhibitory concentration (IC50) in data set [1] came out at 2730 nM; in [2], 6070 nM. Further, in [1] (setting [9]), the “Toxicity to MCF-7 cells (in words)” value was “highly toxic”. For the same compound, the “Cell count (in words)” value in the data set with SH-SY5Y cells is listed as “significantly decreased cell count”; with MCF-7 cells [6] (MCF-7, 1, 2.5, 5 and 10 µM) it was “significantly decreased cell count”; in the data set on MCF-7 cells [6] (MCF-7, 20 and 25 µM), “severe drop in cell count”. In addition, the “Drug interaction of MAP and Tacrine in decreasing cell viability” value was “additive effect” in the data set on MCF-7 cells [3] (higher doses); “synergistic effect” with MCF-7 cells [3] (lower doses of drug and peptide). Moreover, the “Toxicity to SH-SY5Y cells (in words)” value in data set [4] (setting [9]) is recorded as “highly toxic”. Besides, the “Morphological changes of MCF-7 cells vs control (in words)” value with MCF-7 cells [5] was “cell damage observed was similar to that caused by MAP alone”.
Consider `CC(C)C[C@H](NC(=O)[C@H](C)NC(=O)[C@H](CCCCN)NC(=O)[C@H](CC(C)C)NC(=O)[C@H](C)NC(=O)[C@H](CC(C)C)NC(=O)[C@H](CCCCN)NC(=O)[C@H](CC(C)C)NC(=O)[C@H](C)NC(=O)[C@H](CC(C)C)NC(=O)[C@@H](N)CCCCN)C(=O)N[C@@H](CCCCN)C(=O)N[C@@H](C)C(=O)N[C@@H](C)C(=O)N[C@@H](CC(C)C)C(=O)N[C@@H](CCCCN)C(=O)N[C@@H](CC(C)C)C(=O)N[C@@H](C)C(N)=O` [MAP], for which the IC50 in [1] was found to be 2720 nM. The “Cellular uptake among several CPP (in words)” value in [7] is on record as “fastest cellular uptake”.
`Nc1c2c(nc3ccccc13)CCCC2` [Tacrine]: the “MTT reduction compared to control (in words)” value is on record as “no significant differences” in data set [1] (MCF-7, 1, 2.5, 5 and 10 µM, 24 h incubation); “no significant differences” in data set [4] (SH-SY5Y, 1, 2.5, 5 and 10 µM, 24 h incubation). The “Cell count (in words)” value is “did not affect the number of cells in culture” with SH-SY5Y cells; “did not affect the number of cells in culture” in the data set with MCF-7 cells [6] (MCF-7, 1, 2.5, 5 and 10 µM); “no significant effects” in the data set with MCF-7 cells [6] (MCF-7, 20 and 25 µM). Besides, the “Activity on MCF-7 cells (in words)” value in data set [8] (50 µM, alone) is “antiproliferative activity”. For the same compound, the “Cytotoxicity against MCF-7 cells in combination with 5-FU (in words)” value in data set [8] (combination with 5-Fluorouracil) is listed as “increased the cytotoxicity”. Further, the “Morphological changes of MCF-7 cells vs control (in words)” value in the data set on MCF-7 cells [5] was “No significant differences in cell morphology”.
